Measurements: ChEMBL document CHEMBL2331255, “Carbonic anhydrase inhibitors: benzenesulfonamides incorporating cyanoacrylamide moieties are low nanomolar/subnanomolar inhibitors of the tumor-associated isoforms IX and XII” (Bioorg Med Chem, 2013)

Assays:
Carbonic anhydrase 9 = Carbonic anhydrase 9 (Homo sapiens, UniProt Q16790); experiment: Inhibition of human carbonic anhydrase 9 preincubated for 15 mins by CO2 hydration stopped-flow assay
Carbonic anhydrase 1 = Carbonic anhydrase 1 (Homo sapiens, UniProt P00915); experiment: Inhibition of human carbonic anhydrase 1 preincubated for 15 mins by CO2 hydration stopped-flow assay
Carbonic anhydrase 12 = Carbonic anhydrase 12 (Homo sapiens, UniProt O43570); experiment: Inhibition of human carbonic anhydrase 12 preincubated for 15 mins by CO2 hydration stopped-flow assay
Carbonic anhydrase 2 = Carbonic anhydrase 2 (Homo sapiens, UniProt P00918); experiment: Inhibition of human carbonic anhydrase 2 preincubated for 15 mins by CO2 hydration stopped-flow assay

Carbonic anhydrase 12, sequence (O43570 whole entry): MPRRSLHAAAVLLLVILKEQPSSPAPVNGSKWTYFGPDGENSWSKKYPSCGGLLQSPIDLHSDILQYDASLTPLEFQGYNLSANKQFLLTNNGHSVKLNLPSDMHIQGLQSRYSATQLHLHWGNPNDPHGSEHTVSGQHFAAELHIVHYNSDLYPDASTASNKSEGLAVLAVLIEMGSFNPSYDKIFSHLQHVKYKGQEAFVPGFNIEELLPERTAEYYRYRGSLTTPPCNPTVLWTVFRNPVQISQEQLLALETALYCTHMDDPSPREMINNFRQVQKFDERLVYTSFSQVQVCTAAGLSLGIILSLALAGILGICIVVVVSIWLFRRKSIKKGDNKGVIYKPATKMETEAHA
Carbonic anhydrase 1, sequence (P00915 whole entry): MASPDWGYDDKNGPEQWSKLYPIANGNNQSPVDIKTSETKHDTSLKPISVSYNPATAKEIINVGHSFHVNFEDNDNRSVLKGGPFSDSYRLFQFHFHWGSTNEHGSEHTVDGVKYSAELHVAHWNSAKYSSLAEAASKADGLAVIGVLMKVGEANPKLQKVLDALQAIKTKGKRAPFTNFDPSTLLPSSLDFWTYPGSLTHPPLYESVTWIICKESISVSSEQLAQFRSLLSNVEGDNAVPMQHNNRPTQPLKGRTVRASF

SMILES | Ki (Carbonic anhydrase 9) | other results
COc1cc(OC)c(OC)cc1/C=C(\C#N)C(=O)Nc1ccc(S(N)(=O)=O)cc1 | 0.96 nM | 
N#C/C(=C\c1cccs1)C(=O)Nc1ccc(S(N)(=O)=O)cc1 | 3.7 nM | 
N#C/C(=C\c1ccco1)C(=O)Nc1ccc(S(N)(=O)=O)cc1 | 4.3 nM | Ki (Carbonic anhydrase 1): 6.1 nM; Ki (Carbonic anhydrase 12): 6.3 nM; Ki (Carbonic anhydrase 2): 5.5 nM
CN(C)c1ccc(/C=C(\C#N)C(=O)Nc2ccc(S(N)(=O)=O)cc2)cc1 | 3.4 nM | 
N=c1oc2ccccc2cc1C(=O)Nc1ccc(S(N)(=O)=O)cc1 | 12.8 nM | 
N#C/C(C(=O)Nc1ccc(S(N)(=O)=O)cc1)=C(\S)Nc1ccccc1 | 5.8 nM | 
N#C/C(=C\c1ccc(Cl)cc1Cl)C(=O)Nc1ccc(S(N)(=O)=O)cc1 | 35.6 nM | 
N#C/C(=C\c1ccc(O)cc1)C(=O)Nc1ccc(S(N)(=O)=O)cc1 | 0.67 nM | 
N#C/C(=C\c1ccc(O)c(O)c1)C(=O)Nc1ccc(S(N)(=O)=O)cc1 | 0.65 nM | 
COc1ccc(/C=C(\C#N)C(=O)Nc2ccc(S(N)(=O)=O)cc2)cc1OC | 21.2 nM | 
COc1cc(/C=C(\C#N)C(=O)Nc2ccc(S(N)(=O)=O)cc2)cc(OC)c1OC | 20.5 nM | 
COc1ccc(/C=C(\C#N)C(=O)Nc2ccc(S(N)(=O)=O)cc2)cc1 | 0.86 nM | 
N#C/C(=C\c1ccccc1Cl)C(=O)Nc1ccc(S(N)(=O)=O)cc1 | 8.9 nM | 
COc1ccccc1/C=C(\C#N)C(=O)Nc1ccc(S(N)(=O)=O)cc1 | 32.6 nM | Ki (Carbonic anhydrase 1): 71 nM; Ki (Carbonic anhydrase 12): 0.6 nM; Ki (Carbonic anhydrase 2): 6.9 nM
CC(=O)C1=NN(c2ccccc2)/C(=C(\C#N)C(=O)Nc2ccc(S(N)(=O)=O)cc2)S1 | 0.33 nM | 
N#C/C(=C\C=C\c1ccccc1)C(=O)Nc1ccc(S(N)(=O)=O)cc1 | 4.9 nM | 
N#C/C(=C\c1ccc([N+](=O)[O-])cc1)C(=O)Nc1ccc(S(N)(=O)=O)cc1 | 0.93 nM | 
N#C/C(=N\Nc1ccccc1)C(=O)Nc1ccc(S(N)(=O)=O)cc1 | 9.5 nM | 
N#CCC(=O)Nc1ccc(S(N)(=O)=O)cc1 | 5.2 nM | 
COc1cc(/C=C(\C#N)C(=O)Nc2ccc(S(N)(=O)=O)cc2)ccc1O | 5.4 nM | 
